Tests used:
Assay type in all cases: in vivo
[1] = system: Kochia scoparia (KCHSC); experiment: Post-emergence herbicidal activity, KCHSC; settings: % visual injury compared to treatment control, 7 days after treatment
Protocol: (§1) Selected compounds of the invention were screened at 100 PPM against Amaranthus retroflexus (AMARE), Echinochloa crus-galli (ECHCG), Kochia scoparia (KCHSC), and Setaria italica (SETIT).
(§2) Accordingly, PPO susceptible weed seeds were sown in 5″×5″ pots by quadrant containing Miracle-Gro potting mix (Scotts Miracle-Gro Company, Marysville, OH, USA) and grown in a Conviron growth chamber with appropriate growth conditions (temperature of 26/22° C. with photoperiod 16/8 h light day/night and light intensity of 300 μmol m^−2s^−1 supplemented by LED lamps). Relative humidity in the growth chamber was maintained at around 65%. Plants were grown until 2-4 leaf stage and thinned to 5-8 plants per quadrant per species.
(§3) Compounds were formulated in 25% Acetone, 1% Crop oil concentrate (COC-Agridex), 0.1% Tween-20, and 2.5% Ammonium sulphate (AMS). Three replicate pots were treated with each compound. Treatment consisting of the above formulation excluding active compound was applied as a treatment control (TC). Plants were treated with the test compound solution in a laboratory spray chamber fitted with 8003 flat fan nozzles calibrated to deliver 187-200 L ha^−1 at 269 kPa. Plants were placed back in the growth chamber and evaluated for % visual injury compared to TC 7 days after treatment (DAT). The data presented in Table 3 indicate a percentage control, where 100% control indicates complete inhibition of growth.

[2] = system: Echinochloa crus-galli (ECHCG); experiment: Post-emergence herbicidal activity, ECHCG; settings: % visual injury compared to treatment control, 7 days after treatment
Protocol: as §1, §2, §3

[3] = system: Amaranthus retroflexus (AMARE); experiment: Post-emergence herbicidal activity, AMARE; settings: % visual injury compared to treatment control, 7 days after treatment
Protocol: as §1, §2, §3

[4] = system: Setaria italica (SETIT); experiment: Post-emergence herbicidal activity, SETIT; settings: % visual injury compared to treatment control, 7 days after treatment
Protocol: as §1, §2, §3

[5] = system: Amaranthus retroflexus (AMARE); experiment: Pre-emergence herbicidal activity, AMARE; settings: % growth and germination inhibition compared to treatment control, 7 days after treatment
Protocol: Selected compounds of the invention were screened at 200 PPM against Amaranthus retroflexus (AMARE).
Accordingly, PPO susceptible weed seeds were planted in 5″×5″ pots by quadrant containing custom field soil mix (Sandy loam with 4.7% OM, pH 7.0) and covered with a fine layer of the same soil. Compounds were formulated in 25% Acetone, 1% Crop oil concentrate (COC-Agridex), 0.1% Tween-20, and 2.5% Ammonium sulphate (AMS). Three replicate pots were treated with each compound. Treatment consisting of the above formulation excluding active compound was applied as a treatment control (TC). Pots were treated with the test compound solution in a laboratory spray chamber fitted with 8003 flat fan nozzles calibrated to deliver 187-200 L ha-1 at 269 kPa. Compound was incorporated into the soil by simulating rainfall equivalent to 0.2 mm using the same track sprayer. Subsequently, pots were irrigated from the bottom until assessed for % growth and germination inhibition. Pots were placed back in the growth chamber and evaluated for % growth and germination inhibition compared to TC 7 days after treatment (DAT). Growth conditions are similar to the ones mentioned in POST emergence assay.
The data presented in Table 4 indicate a percentage control, where 100% control indicates complete inhibition of growth and germination.

| Compound | Post-emergence (100 ppm) KCHSC, percentage control [1] | Post-emergence (100 ppm) ECHCG, percentage control [2] | Post-emergence (100 ppm) AMARE, percentage control [3] | Post-emergence (100 ppm) SETIT, percentage control [4] | AMARE pre-emergence (200 ppm), percentage control [5] |
| --- | --- | --- | --- | --- | --- |
| COC(=O)CCNC(=O)[C@@H](C)Sc1cc(-c2c(F)c(F)c(F)c(F)c2F)c(F)cc1Cl (single isomer, unassigned) [Compound 6] | 12% | 10% | 100% | 8% | – |
| C[C@H](Sc1cc(-c2c(F)c(F)c(F)c(F)c2F)c(F)cc1Cl)C(=O)NCCC(=O)O [Compound 7, (S)-3-(2-((4-chloro-2′,3′,4′,5′,6,6′-hexafluoro-[1,1′-biphenyl]-3-yl)thio)propanamido)propanoic acid] | 20% | 37% | 100% | 28% | – |
| C[C@@H](Sc1cc(-c2c(F)c(F)c(F)c(F)c2F)c(F)cc1Cl)C(=O)NCCC(=O)O [Compound 8, (R)-3-(2-((4-chloro-2′,3′,4′,5′,6,6′-hexafluoro-[1,1′-biphenyl]-3-yl)thio)propanamido)propanoic acid] | 23% | 28% | 100% | 23% | – |
| CN(C)C(=O)NS(=O)(=O)c1cc(-c2c(F)c(F)c(F)c(F)c2F)c(F)cc1Cl [Compound 16, 4-chloro-N-(dimethylcarbamoyl)-2′,3′,4′,5′,6,6′-hexafluoro-[1,1′-biphenyl]-3-sulfonamide] | 8% | 95% | 33% | 43% | 100% |
| CC(=O)NS(=O)(=O)c1cc(-c2c(F)c(F)c(F)c(F)c2F)c(F)cc1Cl [Compound 17, N-((4-chloro-2′,3′,4′,5′,6,6′-hexafluoro-[1,1′-biphenyl]-3-yl)sulfonyl)acetamide] | 13% | 100% | 88% | 100% | 100% |
| CCC(=O)NS(=O)(=O)c1cc(-c2c(F)c(F)c(F)c(F)c2F)c(F)cc1Cl [Compound 18, N-((4-chloro-2′,3′,4′,5′,6,6′-hexafluoro-[1,1′-biphenyl]-3-yl)sulfonyl)propionamide] | 23% | 100% | 100% | 100% | 100% |
| CCC(=O)NS(=O)(=O)c1cc(-c2c(F)cc(F)c(F)c2F)c(F)cc1Cl [Compound 26, N-((4-chloro-2′,3′,4′,6,6′-pentafluoro-[1,1′-biphenyl]-3-yl)sulfonyl)propionamide] | 15% | 100% | 100% | 100% | 100% |

— US11889833B2, “Protoporphyrinogen oxidase inhibitors” (Enko Chem, Inc., priority 2022, dated 2024)
